Measured values from patent publication US20110015371A1 (Vertex Pharmaceuticals Incorporated, priority 1994, published 2011).
Where a name gives a salt, the structure may show the parent alone. Non-standard residues stand in square brackets, D forms with d. Residues, ends and D or L forms follow the SMILES beside them. *: point of attachment. Hyp = O=C(O)[C@@H]1C[C@@H](O)CN1; Tic = O=C(O)[C@@H]1Cc2ccccc2CN1; Bn = c1ccc(C*)cc1

What was measured:
ICE = target: T1, ICE (Homo sapiens, UniProt P29466); assay: Enzyme assay with UV-visible substrate (Succinyl-Tyr-Val-Ala-Asp-pNitroanilide); type: biochemical
T1 sequence (P29466 120-297 limits assumed): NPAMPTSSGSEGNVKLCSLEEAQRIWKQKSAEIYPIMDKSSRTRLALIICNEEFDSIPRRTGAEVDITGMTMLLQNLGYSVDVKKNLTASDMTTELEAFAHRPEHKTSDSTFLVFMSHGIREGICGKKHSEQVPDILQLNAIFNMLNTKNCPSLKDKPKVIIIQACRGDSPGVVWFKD
T1 sequence (P29466 317-404 limits assumed): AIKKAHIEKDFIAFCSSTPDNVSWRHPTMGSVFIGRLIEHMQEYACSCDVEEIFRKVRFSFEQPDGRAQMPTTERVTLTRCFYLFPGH
Experimental: 1. Enzyme Assay with UV-Visible Substrate
This assay is run using an Succinyl-Tyr-Val-Ala-Asp-pNitroanilide substrate. Synthesis of analogous substrates is described by L. A. Reiter (Int. J. Peptide Protein Res. 43, 87-96 (1994)). The assay mixture contains:
The visible ICE assay is run in a 96-well microtiter plate. Buffer, ICE and DMSO (if inhibitor is present) are added to the wells in the order listed. The components are left to incubate at room temperature for 15 minutes starting at the time that all components are present in all wells. The microtiter plate reader is set to incubate at 37° C. After the 15 minute incubation, substrate is added directly to the wells and the reaction is monitored by following the release of the chromophore (pNA) at 405-603 nm at 37° C. for 20 minutes. A linear fit of the data is performed and the rate is calculated in mOD/min. DMSO is only present during experiments involving inhibitors, buffer is used to make up the volume to 100 μl in the other experiments.
For determination of enzyme inhibition constants (Ki) or the mode of inhibition (competitive, uncompetitive or noncompetitive), the rate data determined in the enzyme assays at varying inhibitor concentrations are computer-fit to standard enzyme kinetic equations (see I. H. Segel, Enzyme Kinetics, Wiley-Interscience, 1975).

[1] = system: Human Peripheral Blood Mononuclear Cells (PBMC) or Enriched Adherent Mononuclear Cells; assay: Cell assay: IL-1β assay with human PBMC or enriched adherent mononuclear cells; type: cell-based; conditions: Example 4 table, LPS-stimulated cells, mature IL-1β in supernatant by ELISA
Description: IL-1β Assay with a Mixed Population of Human Peripheral Blood Mononuclear Cells (PBMC) or Enriched Adherent Mononuclear Cells
Processing of pre-IL-1S by ICE can be measured in cell culture using a variety of cell sources. Human PBMC obtained from healthy donors provides a mixed population of lymphocyte subtypes and mononuclear cells that produce a spectrum of interleukins and cytokines in response to many classes of physiological stimulators. Adherent mononuclear cells from PBMC provides an enriched source of normal monocytes for selective studies of cytokine production by activated cells.
An initial dilution series of test compound in DMSO or ethanol is prepared, with a subsequent dilution into RPMI-10% FBS media (containing 2 mM L-glutamine, 10 mM HEPES, 50 U and 50 ug/ml pen/strep) respectively to yield drugs at 4× the final test concentration containing 0.4% DMSO or 0.4% ethanol. The final concentration of DMSO is 0.1% for all drug dilutions. A concentration titration which brackets the apparent Ki for a test compound determined in an ICE inhibition assay is generally used for the primary compound screen.
We generally test 5-6 compound dilutions and have performed the cellular component of the assay in duplicate, with duplicate ELISA determinations on each cell culture supernatant.
Buffy coat cells isolated from one pint human blood (yielding 40-45 ml final volume plasma plus cells) are diluted with media to 80 ml and LeukoPREP separation tubes (Becton Dickinson) are each overlaid with 10 ml of cell suspension. After 15 min centrifugation at 1500-1800×g, the plasma/media layer is aspirated and then the mononuclear cell layer is collected with a Pasteur pipette and transferred to a 15 ml conical centrifuge tube (Corning). Media is added to bring the volume to 15 ml, gently mix the cells by inversion and centrifuge at 300×g for 15 min. Resuspend the PBMC pellet in a small volume of media, count cells and adjust to 6×10^6 cells/ml.
For the cellular assay, add 1.0 ml of the cell suspension to each well of a 24-well flat bottom tissue culture plate (Corning), 0.5 ml test compound dilution and 0.5 ml LPS solution (Sigma #L-3012; 20 ng/ml solution prepared in complete RPMI media; final LPS concentration 5 ng/ml). The 0.5 ml additions of test compound and LPS are usually sufficient to mix the contents of the wells. Three control mixtures are run per experiment, with either LPS alone, solvent vehicle control, and/or additional media to adjust the final culture volume to 2.0 ml. The cell cultures are incubated for 16-18 hr at 37° C. in the presence of 5% CO2.
At the end of the incubation period, cells are harvested and transferred to 15 ml conical centrifuge tubes. After centrifugation for 10 min at 200×g, supernatants are harvested and transferred to 1.5 ml Eppendorf tubes. It may be noted that the cell pellet may be utilized for a biochemical evaluation of pre-IL-1S and/or mature IL-1β content in cytosol extracts by western blotting or ELISA with pre-IL-1β specific antisera.
PBMC are isolated and prepared as described above. Media (1.0 ml) is first added to wells followed by 0.5 ml of the PBMC suspension. After a one hour incubation, plates are gently shaken and nonadherent cells aspirated from each well. Wells are then gently washed three times with 1.0 ml of media and final resuspended in 1.0 ml media. The enrichment for adherent cells generally yields 2.5−3.0×10^5 cells per well. The addition of test compounds, LPS, cell incubation conditions and processing of supernatants proceeds as described above.
We have used Quantikine kits (R&D Systems) for measurement of mature IL-1β. Assays are performed according to the manufacturer's directions. Mature IL-1β levels of about 1-3 ng/ml in both PBMC and adherent mononuclear cell positive controls are observed. ELISA assays are performed on 1:5, 1:10 and 1:20 dilutions of supernatants from LPS-positive controls to select the optimal dilution for supernatants in the test panel.

Row | Ki (ICE; Example 4 table) | Ki (ICE; Example 6 table) | Structure (SMILES) | other results
1 | 0.97 µM | – | CC(C(=O)N[C@H](C=O)CC(=O)O)n1c(Cc2ccccc2)ccc(NC(=O)CCc2ccccc2)c1=O (mixture of isomers) [Compound 54h, 3(S), N(2(R,S))3-(2-(6-Benzyl-1,2-dihydro-2-oxo-3-(3-phenylpropionyl)amino-1-pyridyl)propionylamino)-4-oxobutanoic acid] | –
2 | 35 µM | – | O=CC(CC(=O)O)NC(=O)C1CCc2ncc(NC(=O)c3ccccc3)c(=O)n21 (single isomer, unassigned) [Compound 7a] | –
3 | 1.2 µM | – | O=CC(CC(=O)O)NC(=O)C1CCc2ncc(NC(=O)c3ccccc3)c(=O)n21 (single isomer, unassigned) [Compound 7b] | –
4 | 6.2 µM | – | O=C[C@H](CC(=O)O)NC(=O)CN(CCc1ccccc1)C(=O)c1ncc(CCCc2ccccc2)[nH]1 [Compound 25, (3S)-(2-{Phenethyl-[5-(3-phenylpropyl)-1H-imidazole-2-carbonyl]amino}acetylamino)-4-oxobutanoic acid trifluoroacetic acid salt] | –
5 | 0.019 µM | – | O=C[C@H](CC(=O)O)NC(=O)[C@@H]1CCCN2C(=O)CC[C@H](NC(=O)CCc3ccccc3)C(=O)N12 [Compound 47a, [3S, (1S,9S)]3-(6,10-Dioxo-octahydro-9-(3-phenylpropionylamino)-6H-pyridazino[1,2-a][1,2]diazepine-1-carboxamido)-4-oxobutanoic acid] | IC50 ([1]; Homo sapiens, PBMC): 2.1 µM
6 | 1.2 µM | – | O=C[C@H](CC(=O)O)NC(=O)Cn1c(CCc2ccccc2)ccc(NC(=O)CCc2ccccc2)c1=O [Compound 54c, 3(S)3-(1,2-Dihydro-2-oxo-6-phenethyl-3(3-phenyl-propionyl)amino-1-pyridyl)acetylamino-4-oxobutanoic acid] | IC50 ([1]; Homo sapiens, PBMC): > 19 µM
7 | 0.9 µM | – | O=C[C@H](CC(=O)O)NC(=O)Cn1c(-c2ccccc2)ccc(NC(=O)CCc2ccccc2)c1=O [Compound 54f, 3(S)3-(1,2-Dihydro-2-oxo-6-phenyl-3-(3-phenyl-propionyl)amino-1-pyridyl)acetylamino-4-oxobutanoic acid] | –
8 | 0.054 µM | – | CC(=O)N[C@@H](Cc1ccc(O)cc1)C(=O)Nc1ccc(Cc2ccccc2)n(CC(=O)N[C@H](C=O)CC(=O)O)c1=O [Compound 54i, 3(S)3-(3-(2-Acetyl-L-tyrosinyl)amino-6-benzyl-1,2-dihydro-2-oxo-1-pyridyl)acetylamino-4-oxobutanoic acid] | IC50 ([1]; Homo sapiens, PBMC): 2.4 µM
9 | 0.215 µM | – | O=C[C@H](CC(=O)O)NC(=O)Cn1c(Cc2ccccc2)ccc(NC(=O)CCCc2ccccc2)c1=O [Compound 54l, 3(S)3-(6-Benzyl-1,2-dihydro-2-oxo-3-(4-phenylbutyryl)carbonylamino-1-pyridyl)acetylamino-4-oxobutanoic acid] | IC50 [1]: 7 µM
10 | – | 3.8 µM | O=C[C@H](CC(=O)O)NC(=O)CN1CCCC[C@H](NC(=O)CCc2ccc(O)cc2)C1=O [Compound 92, 3-(S)-(2-(3[3-(S)-(4-Hydroxy-phenyl)-propionylamino]-2-oxo-azepan-1-yl)-acetylamino)-4-oxo-butyric acid] | –
11 | – | 0.68 µM | O=C(O)C[C@H](NC(=O)[C@@H]1CCc2ncc(NC(=O)CCc3ccccc3)c(=O)n21)C(=O)c1ncc(-c2c(Cl)cccc2Cl)o1 [Compound 102c, 4-[5-(2,6-Dichloro-phenyl)-oxazol-2-yl]-4-oxo-(3S)-{[4-oxo-3-(3-phenyl-propionylamino)-4,6,7,8-tetrahydro-pyrrolo[1,2-a]pyrimidine-(6S)-carbonyl]-amino}-butyric acid] | –
12 | – | 3.7 µM | O=C[C@H](CC(=O)O)NC(=O)CN1CCN(Cc2ccccc2)C[C@H](NC(=O)OCc2ccccc2)C1=O [Compound 114b, 3(S)-{2-[4-Benzyl-7-oxo-6(S)—(N-benzyloxycarbonylamino)-[1,4]diazepan-1-yl]-acetylamino}-4-oxo-butyric acid trifluoroacetic acid salt] | –
13 | – | 12.5 µM | O=C[C@H](CC(=O)O)NC(=O)[C@@H]1CCCN2C(=O)C[C@@H](NC(=O)CCc3ccccc3)C(=O)N12 [Compound 132b] | –
14 | – | 0.67 µM | O=C[C@H](CC(=O)O)NC(=O)[C@@H]1CS[C@@H]2CCC[C@H](NC(=O)CCc3ccccc3)C(=O)N21 [Compound 141] | –
15 | – | 8.8 µM | CC(C)[C@H](NC(=O)OCc1ccccc1)C(=O)N[C@@H](C)C(=O)N[C@@H](CC(=O)O)C(=O)c1ncco1 [Compound 152] | –
16 | – | 0.24 µM | CC(C)[C@H](NC(=O)OCc1ccccc1)C(=O)N[C@@H](C)C(=O)N[C@@H](CC(=O)O)C(=O)c1nc(-c2ccccc2)co1 [Compound 153] | –
17 | – | 0.023 µM | CC(=O)N[C@@H](Cc1ccc(O)cc1)C(=O)N[C@H](C(=O)N1CCC[C@H]1C(=O)N[C@@H](CC(=O)O)C(=O)c1ncc(-c2c(Cl)cccc2Cl)o1)C(C)C [Compound 155] | –
18 | – | 0.26 µM | O=C(O)C[C@H](NC(=O)[C@@H]1CCCN1C(=O)c1ncc(CCCc2ccccc2)[nH]1)C(=O)c1ncc(-c2c(Cl)cccc2Cl)o1 [Compound 157] | –
19 | – | 1.1 µM | CC(=O)N[C@H](C(=O)N1C[C@H](OCc2ccccc2)C[C@H]1C(=O)N[C@H](C=O)CC(=O)O)C(C)C [Compound 158] (Ac-Val-[Hyp](Bn)-Asp-aldehyde) | –
20 | – | 0.011 µM | CC(=O)N[C@@H](Cc1ccc(O)cc1)C(=O)N[C@H](C(=O)N1C[C@H](Oc2ccccc2)CC1C(=O)N[C@@H](CC(=O)O)C(=O)CSCc1ccccc1Cl)C(C)C (stereo partly drawn) [Compound 161] | –
21 | – | – | CC(=O)N[C@@H](Cc1ccc(O)cc1)C(=O)N[C@H](C(=O)N1Cc2ccccc2C[C@H]1C(=O)N[C@H](C=O)CC(=O)O)C(C)C [L, N-[2-(N-Acetyl-tyrosinyl-valinyl)-(S)-1,2,3,4-tetrahydroisoquinoline-3-carbonyl]-3-amino-oxobutanoic acid] (Ac-YV[Tic]D-aldehyde) | Ki (ICE; Example 2 table): 0.014 µM

Row | Structure (SMILES) | Ki (ICE; Example 4 table) | Ki (ICE; Example 6 table) | other results
22 | CC(C)[C@H](NC(=O)OCc1ccccc1)C(=O)N[C@@H](C)C(=O)N[C@@H](CC(=O)O)C(=O)c1nc2ccccc2o1 [Compound 63, (3S)N-(N-Benzyloxycarbonyl-(S)-valinyl-(S)-alaninyl)-3-amino-4-(2-benzoxazolyl)-4-oxobutanoate] | 0.85 µM | – | IC50 [1]: 4.1 µM
